Test results as given in PubChem BioAssay (NCI).
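Following 48 hours of exposure in 96-well plates, responses at five concentrations were used to interpolate endpoints linearly. At the GI50, growth is halved. TGI denotes the concentration required for complete inhibition of growth.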

Columns and labels:
Test in all cases: NCI-60 cell line screen, 48 h
ACHN renal = test system: ACHN renal
COLO 205 colon = test system: COLO 205 colon
SF-295 CNS = test system: SF-295 CNS
U251 CNS = test system: U251 CNS
PC-3 prostate = test system: PC-3 prostate
SNB-75 CNS = test system: SNB-75 CNS
OVCAR-8 ovarian = test system: OVCAR-8 ovarian
SK-OV-3 ovarian = test system: SK-OV-3 ovarian
K-562 leukemia = test system: K-562 leukemia
NCI-H226 lung = test system: NCI-H226 lung

SMILES: COc1ccc(-c2nn(-c3cccc(Cl)c3)cc2-c2c(C#N)c(=O)n3[nH]c(-c4ccc(C)cc4)nc3c2C#N)cc1
- GI50 (ACHN renal): 2.41 µM
- TGI (ACHN renal): 12.6 µM
- GI50 (COLO 205 colon): 2.32 µM
- TGI (COLO 205 colon): 8.15 µM
- GI50 (SF-295 CNS): 1.2 µM
- TGI (SF-295 CNS): 4.14 µM
- GI50 (U251 CNS): 0.797 µM
- TGI (U251 CNS): 1.59 µM
- GI50 (PC-3 prostate): 1.7 µM
- TGI (PC-3 prostate): 9.26 µM
- GI50 (SNB-75 CNS): 0.828 µM
- TGI (SNB-75 CNS): 2.4 µM
- GI50 (OVCAR-8 ovarian): 0.818 µM
- TGI (OVCAR-8 ovarian): 2.99 µM
- GI50 (SK-OV-3 ovarian): 3.3 µM
- TGI (SK-OV-3 ovarian): 9.54 µM
- GI50 (K-562 leukemia): 1.43 µM
- TGI (K-562 leukemia): > 50 µM
- GI50 (NCI-H226 lung): 2.39 µM
- TGI (NCI-H226 lung): 9.62 µM

SMILES: C[C@]1(C(=O)O)N[C@H](C(=O)O)CS1
- GI50 (ACHN renal): > 1000 µM
- TGI (ACHN renal): > 1000 µM
- GI50 (COLO 205 colon): > 1000 µM
- TGI (COLO 205 colon): > 1000 µM
- GI50 (SF-295 CNS): 933 µM
- TGI (SF-295 CNS): > 1000 µM
- GI50 (U251 CNS): > 1000 µM
- TGI (U251 CNS): > 1000 µM
- GI50 (PC-3 prostate): > 1000 µM
- TGI (PC-3 prostate): > 1000 µM
- GI50 (SNB-75 CNS): > 1000 µM
- TGI (SNB-75 CNS): > 1000 µM
- GI50 (OVCAR-8 ovarian): > 1000 µM
- TGI (OVCAR-8 ovarian): > 1000 µM
- GI50 (SK-OV-3 ovarian): > 1000 µM
- TGI (SK-OV-3 ovarian): > 1000 µM
- GI50 (K-562 leukemia): 2.34 µM
- TGI (K-562 leukemia): > 1000 µM
- GI50 (NCI-H226 lung): > 1000 µM
- TGI (NCI-H226 lung): > 1000 µM

SMILES: CN[C@@H]1C[C@H]2O[C@@](C)([C@@H]1OC)n1c3ccccc3c3c4c(c5c6ccccc6n2c5c31)C(=O)N[C@H]4O
- GI50 (ACHN renal): 0.036 µM
- TGI (ACHN renal): > 10 µM
- GI50 (COLO 205 colon): 0.0311 µM
- TGI (COLO 205 colon): 0.267 µM
- GI50 (SF-295 CNS): 0.0268 µM
- TGI (SF-295 CNS): 0.26 µM
- GI50 (U251 CNS): 0.0676 µM
- TGI (U251 CNS): 0.651 µM
- GI50 (PC-3 prostate): 0.0149 µM
- TGI (PC-3 prostate): 1.14 µM
- GI50 (SNB-75 CNS): 0.00564 µM
- TGI (SNB-75 CNS): 0.0412 µM
- GI50 (OVCAR-8 ovarian): 0.0885 µM
- TGI (OVCAR-8 ovarian): > 5.44 µM
- GI50 (SK-OV-3 ovarian): 0.0337 µM
- TGI (SK-OV-3 ovarian): 0.298 µM
- GI50 (K-562 leukemia): 0.129 µM
- TGI (K-562 leukemia): > 6.56 µM
- GI50 (NCI-H226 lung): 0.0269 µM
- TGI (NCI-H226 lung): > 4.01 µM

SMILES: C[n+]1c2ccccc2c(Nc2ccc(NS(=O)(=O)CCCCN=C(N)N)cc2)c2ccc(N)cc21
- GI50 (ACHN renal): 2.79 µM
- TGI (ACHN renal): > 100 µM
- GI50 (COLO 205 colon): 1.67 µM
- TGI (COLO 205 colon): > 100 µM
- GI50 (SF-295 CNS): 0.0785 µM
- TGI (SF-295 CNS): > 100 µM
- GI50 (U251 CNS): 0.22 µM
- TGI (U251 CNS): 54 µM
- GI50 (PC-3 prostate): 8.47 µM
- TGI (PC-3 prostate): > 100 µM
- GI50 (SNB-75 CNS): 1.48 µM
- TGI (SNB-75 CNS): > 100 µM
- GI50 (OVCAR-8 ovarian): 2.48 µM
- TGI (OVCAR-8 ovarian): > 100 µM
- GI50 (SK-OV-3 ovarian): 2.77 µM
- TGI (SK-OV-3 ovarian): > 100 µM
- GI50 (K-562 leukemia): 2.6 µM
- TGI (K-562 leukemia): > 100 µM
- GI50 (NCI-H226 lung): 0.128 µM
- TGI (NCI-H226 lung): 31.2 µM

SMILES: COc1ccc2c3c(c4ccccc4cc13)C(=O)N(CCN(C)CCN)C2=O
- GI50 (ACHN renal): 0.0187 µM
- TGI (ACHN renal): 0.17 µM
- GI50 (COLO 205 colon): 0.0843 µM
- TGI (COLO 205 colon): 1.27 µM
- GI50 (SF-295 CNS): 0.0437 µM
- TGI (SF-295 CNS): 1.03 µM
- GI50 (U251 CNS): 0.0776 µM
- TGI (U251 CNS): 1.21 µM
- GI50 (PC-3 prostate): 0.338 µM
- TGI (PC-3 prostate): 1.93 µM
- GI50 (SNB-75 CNS): 0.166 µM
- TGI (SNB-75 CNS): 1.37 µM
- GI50 (OVCAR-8 ovarian): 0.107 µM
- TGI (OVCAR-8 ovarian): 1.61 µM
- GI50 (SK-OV-3 ovarian): 0.0692 µM
- TGI (SK-OV-3 ovarian): 0.806 µM
- GI50 (K-562 leukemia): 0.204 µM
- TGI (K-562 leukemia): 1.32 µM
- GI50 (NCI-H226 lung): 0.145 µM
- TGI (NCI-H226 lung): 0.383 µM

SMILES: O=CC(Br)C(Br)c1ccccc1 (centres undefined)
- GI50 (ACHN renal): 1.64 µM
- TGI (ACHN renal): 3.12 µM
- GI50 (COLO 205 colon): 2.17 µM
- TGI (COLO 205 colon): 4.55 µM
- GI50 (SF-295 CNS): 12.8 µM
- TGI (SF-295 CNS): 27.7 µM
- GI50 (U251 CNS): 7.4 µM
- TGI (U251 CNS): 20.4 µM
- GI50 (PC-3 prostate): 2.39 µM
- TGI (PC-3 prostate): 6.75 µM
- GI50 (SNB-75 CNS): 7.69 µM
- TGI (SNB-75 CNS): 20.9 µM
- GI50 (OVCAR-8 ovarian): 2.95 µM
- TGI (OVCAR-8 ovarian): 10.2 µM
- GI50 (SK-OV-3 ovarian): 16.6 µM
- TGI (SK-OV-3 ovarian): 30.3 µM
- GI50 (K-562 leukemia): 0.963 µM
- TGI (K-562 leukemia): 6.84 µM
- GI50 (NCI-H226 lung): 6.8 µM
- TGI (NCI-H226 lung): 18.7 µM

SMILES: Oc1ccc2ccccc2c1C1NN=C(c2ccccc2)S1 (centres undefined)
- GI50 (ACHN renal): 0.343 µM
- TGI (ACHN renal): > 40 µM
- GI50 (COLO 205 colon): 0.55 µM
- TGI (COLO 205 colon): 16.3 µM
- GI50 (SF-295 CNS): 0.475 µM
- TGI (SF-295 CNS): 62.2 µM
- GI50 (U251 CNS): 0.461 µM
- TGI (U251 CNS): 48.5 µM
- GI50 (PC-3 prostate): 0.645 µM
- TGI (PC-3 prostate): > 100 µM
- GI50 (SNB-75 CNS): 1.02 µM
- TGI (SNB-75 CNS): 32.2 µM
- GI50 (OVCAR-8 ovarian): 0.439 µM
- TGI (OVCAR-8 ovarian): > 100 µM
- GI50 (SK-OV-3 ovarian): 0.519 µM
- TGI (SK-OV-3 ovarian): 20.5 µM
- GI50 (K-562 leukemia): 0.504 µM
- TGI (K-562 leukemia): > 100 µM
- GI50 (NCI-H226 lung): 0.647 µM
- TGI (NCI-H226 lung): 14.2 µM

SMILES: CCOc1ccc2nc(-c3cccc(OCC(=O)NC(C)C)c3)nc(Nc3ccc(-c4cn[nH]c4)cc3)c2c1
- GI50 (ACHN renal): 0.675 µM
- TGI (ACHN renal): 2.96 µM
- GI50 (COLO 205 colon): 0.686 µM
- TGI (COLO 205 colon): 5.4 µM
- GI50 (SF-295 CNS): 0.711 µM
- TGI (SF-295 CNS): 3.01 µM
- GI50 (U251 CNS): 0.431 µM
- TGI (U251 CNS): 2.15 µM
- GI50 (PC-3 prostate): 0.348 µM
- TGI (PC-3 prostate): 2 µM
- GI50 (SNB-75 CNS): 1.16 µM
- TGI (SNB-75 CNS): 2.48 µM
- GI50 (OVCAR-8 ovarian): 0.586 µM
- TGI (OVCAR-8 ovarian): 4.76 µM
- GI50 (SK-OV-3 ovarian): 4.53 µM
- TGI (SK-OV-3 ovarian): 13 µM
- GI50 (K-562 leukemia): 0.454 µM
- GI50 (NCI-H226 lung): 0.783 µM
- TGI (NCI-H226 lung): 3.19 µM

SMILES: COc1ccc([I+]c2ccccc2)cc1
- GI50 (ACHN renal): 42.7 µM
- TGI (ACHN renal): > 100 µM
- GI50 (COLO 205 colon): 5.95 µM
- TGI (COLO 205 colon): > 100 µM
- GI50 (SF-295 CNS): 7.17 µM
- TGI (SF-295 CNS): 78.2 µM
- GI50 (U251 CNS): 7.94 µM
- TGI (U251 CNS): > 100 µM
- GI50 (PC-3 prostate): 9.07 µM
- TGI (PC-3 prostate): > 100 µM
- GI50 (SNB-75 CNS): 14 µM
- TGI (SNB-75 CNS): > 100 µM
- GI50 (OVCAR-8 ovarian): 1.37 µM
- TGI (OVCAR-8 ovarian): > 100 µM
- GI50 (SK-OV-3 ovarian): 50.2 µM
- TGI (SK-OV-3 ovarian): > 100 µM
- GI50 (K-562 leukemia): 1.45 µM
- TGI (K-562 leukemia): > 100 µM
- GI50 (NCI-H226 lung): 12.2 µM
- TGI (NCI-H226 lung): > 100 µM
